Data set [1] relates to L. monocytogenes Scott A to AGS cell. As to the kind of experiment: Adhesion analysis on AGS cells. The class given is cell-based, Listeria monocytogenes. The note with it: CMP 0.4 mg/ml, at the lower MOI, 30 min 37° C. The text has this:
(§1) The human intestinal epithelial cell line HT-29 and the human gastric epithelial cell line AGS were purchased from the Korea Cell Line Bank (KCLB; Seoul, Korea). HT-29 cells have been extensively used as a model system for studying interaction of enteric pathogens with intestinal epithelial cells. All media and fetal bovine serum (FBS) were obtained from Gibco BRL (Life Technologies Inc., Grand Island, N.Y., USA) and JBI (Jeil Biotech services Inc., Seoul, Korea). The HT-29 and AGS cells were grown in RPMI-1640 medium which was supplemented with 10% heat-inactivated FBS. The cells were routinely cultured at 37° C. in 5% CO2 incubator with 6-well or 12-well tissue culture plates for adhesion and invasion assays and in 100-mm-diameter tissue culture plates for RNA isolation.
(§2) Prior to the adhesion assay, the HT-29 and the AGS cells monolayers were washed three times in pre-warm PBS (25° C.) to remove any culture medium and non-attached cells. The adhesion assays were performed using L. monocytogenes Scott A according to the method of Hagman et al. (1999) with modifications. Bacteria were grown overnight at 37° C. in TSBYE. […]

For data set [2], the system named is L. monocytogenes Scott A to HT-29 cell. As to the kind of experiment: Adhesion analysis on HT-29 cells. As to conditions: CMP 0.4 mg/ml, at the lower MOI, 30 min 37° C. Format: cell-based, Listeria monocytogenes.
Excerpt: as §1, §2

Another data set deals with L. monocytogenes Scott A. As to the kind of experiment: Nematode Caenorhabditis elegans killing assay. The class given is in vivo. On the procedure:
Caenorhabditis elegans killing assay were performed as initially described by Tenor et al. (2004) with modification. Briefly, L. monocytogenes Scott A was grown in 10 ml of TSBYE culture for overnight. Culture samples (each, 10 μl) were then spread on NGM agar plates (Brenner, 1974; diameter of each, 30 mm). In the present invention, instead of wild-type Bristol N2 worms, we tested killing of C. elegans glp-4 mutant worms. […] (Mylonakis et al., 2002). For each strain, healthy 12 nematodes in L4 stage were transferred from NGM plates seeded with Escherichia coli OP50 to the plates seeded with L. monocytogenes Scott A in the absence or presence of 0.4 mg/ml of CMP and incubated at 25° C. The number of living worms per plate was determined at various time points for 15 days with a light microscopy (Olympus CH30, Tokyo, Japan). […] Each experimental condition was tested in duplicate or triplicate. In analogous experiments, E. coli OP50 was used as controls.

The subject of data set [3] is L. monocytogenes 3990 and 18. The data set is described as follows: Flow chamber biofilm assay (glass capillary tubes, continuous flow). Format: cell-based, Listeria monocytogenes. As to conditions: 0.4 mg/ml CMP. On the procedure: Under continuous flow conditions, biofilms were grown in glass capillary tubes by using a slight modification of the previously described method (Purevdorj et al., 2002). The flow chambers, with individual channel dimensions of 3 mm×3 mm×50 mm (Stovall Life Sciences, Inc., Greensboro, N.C., USA), were inoculated with 1 ml (˜10^9 CFU/ml) of the overnight cultures of L. monocytogenes grown in TSBYE. The inoculum was injected to fill the inside of the glass tubes by using a syringe. The tubing upstream of the glass tube was clamped, and the system allowed standing without flow for 30 min at room temperature. After inoculation, the capillary tubes were mounted on a standard microscope slide. The system was switched to continuous culture mode by delivering MWB to the home-made carboy with a flow rate of 0.1 ml/min at 30° C. […] The biofilms developed in the flow chambers were monitored by using transmitted light and 10× objective lenses with an Olympus CH2 microscope (Olympus, Tokyo, Japan).

Results on one substance are retold here after patent US8383582B2, “Inhibitor against forming biofilm comprising κ-casein macropeptide” (Industry Foundation of Chonnam National University, priority 2010, dated 2013).

Values joined by “and” are separate entries in the source; they are usually repeats but may differ in a detail not shown here. Equal values may be shown once.

Consider κ-casein macropeptide [CMP], for which the “adhesion of L. monocytogenes Scott A” value in data set [1] and in data set [2] was “prevented” throughout. In the data set with L. monocytogenes Scott A (C. elegans glp-4 on lawn of L. monocytogenes Scott A, agar medium with CMP 0.4 mg/ml, 8 days, 25° C., 37.5% without CMP), the worms survived is 54% and 50%. The “survival of C. elegans from the infection of L. monocytogenes” value in the data set on L. monocytogenes Scott A (CMP 0.4 mg/ml, 15 days) is “prolong the survival ability”. The “microcolonies or aggregates seen” value in data set [3] (same incubation times as control (12-18 h)) is given as “very few microcolonies or aggregates”. The “biofilm biomass compared to control” value in data set [3] (strains 3990 and 18, 24 h, glass capillary tubes, continuous flow) is “decreased biomass”.
